In general, TGI refers to the concentration giving total growth inhibition. Read a high TGI as less potent growth arrest. The GI50 is the concentration that inhibits growth by half.

The source of these data is PubChem BioAssay (NCI).

Some test systems named below: HL-60(TB) leukemia; RXF 393 renal; U251 CNS; DU-145 prostate; MCF7 breast; SF-539 CNS; OVCAR-8 ovarian; SF-295 CNS; SW-620 colon; M14 melanoma.
Holding throughout (experiment): DTP human tumour cell line panel, 48 h

Several values for one entry are separate records, joined by “and”; a condition that tells them apart may be missing. Equal entries are not always repeated.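 Briefly, cells in 96-well plates were exposed to five compound concentrations for 48 h, and endpoints were estimated by linear interpolation. GI50: concentration for 50% inhibition of growth. TGI marks complete inhibition of growth.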

For the compound `O=C(OCc1ccccc1)N1c2cc([N+](=O)[O-])ccc2C(=O)N2CCC[C@H]2C1O` (stereo partly specified), the TGI with HL-60(TB) leukemia, with RXF 393 renal, with U251 CNS, in the assay with DU-145 prostate, in the assay on MCF7 breast and with SF-539 CNS was > 100 µM each time. The TGI in the assay on OVCAR-8 ovarian, in the assay on SF-295 CNS, in the assay on SW-620 colon and in the assay on M14 melanoma was > 100 µM in each case.
For `CC1CCC2(CC1)N=C1CCC(C)CC1C1(CCC(C)CC1)N2` (stereo unspecified), the TGI with HL-60(TB) leukemia, in the assay on RXF 393 renal, in the assay with U251 CNS, in the assay with DU-145 prostate, in the assay on MCF7 breast and in the assay with SF-539 CNS was > 100 µM throughout. Also, the TGI in the assay with OVCAR-8 ovarian, in the assay on SF-295 CNS, in the assay on SW-620 colon and in the assay on M14 melanoma was > 100 µM in each case.
`CC(=O)NC1=CC(=O)c2cc(C)cc(O)c2C1=O`: the TGI with HL-60(TB) leukemia amounted to 5.24 µM; with RXF 393 renal it was 26.8 µM; in the assay with U251 CNS, 36.4 µM; in the assay on DU-145 prostate, 14.1 µM; in the assay with MCF7 breast, 7.8 µM; in the assay with SF-539 CNS, 14.8 µM. Moreover, the TGI came out at 18.7 µM with OVCAR-8 ovarian, 39.4 µM in the assay with SF-295 CNS, 10.6 µM in the assay with SW-620 colon and 3.53 µM in the assay with M14 melanoma.
With `CCOc1cc(C2SCC(=O)N2c2nc3cc4sc(N5C(=O)CSC5c5ccc(O)c(OCC)c5)nc4cc3s2)ccc1O` (stereo unspecified), the TGI in the assay with HL-60(TB) leukemia was > 100 µM; in the assay on RXF 393 renal, > 100 µM; with U251 CNS it was > 100 µM; in the assay on DU-145 prostate, > 100 µM; in the assay on MCF7 breast it was > 86.3 µM; in the assay on SF-539 CNS, > 100 µM. Further, the TGI in the assay with OVCAR-8 ovarian, with SF-295 CNS, in the assay on SW-620 colon and with M14 melanoma was > 100 µM in each case.
For `CCOC(=O)C(=Cn1c(=S)[nH]c2ccc([N+](=O)[O-])cc21)C(=O)OCC`, the TGI with HL-60(TB) leukemia, in the assay with RXF 393 renal, in the assay with U251 CNS, in the assay with DU-145 prostate, in the assay on MCF7 breast and with SF-539 CNS was > 100 µM throughout. The TGI in the assay on OVCAR-8 ovarian, in the assay with SF-295 CNS, in the assay on SW-620 colon and in the assay on M14 melanoma was > 100 µM throughout.
With `O=C1C(N=Nc2ccc(-c3nc4ccccc4[nH]3)cc2)NC(=S)N1c1ccccc1` (stereo unspecified), the total growth inhibition concentration (TGI) in the assay with HL-60(TB) leukemia was > 100 µM; in the assay on RXF 393 renal, 47.3 µM; with U251 CNS, > 100 µM; in the assay on DU-145 prostate it was > 100 µM; in the assay with MCF7 breast, 24.8 µM; in the assay on SF-539 CNS, > 100 µM. The concentration for total growth inhibition (TGI) in the assay with OVCAR-8 ovarian is > 100 µM; in the assay on SF-295 CNS, > 100 µM; with SW-620 colon it was 80.1 µM; in the assay on M14 melanoma, > 100 µM.
Turning to `CCC(C)C1(O)OC2CC3(C)OC(=CC3=O)/C(C)=C\C3OC(=O)C1(C)C32` (stereo unspecified), the TGI in the assay on HL-60(TB) leukemia was 63.8 µM; with U251 CNS, > 100 µM; with DU-145 prostate it was 17 µM; in the assay with MCF7 breast, 28.4 µM; with SF-539 CNS, > 100 µM; in the assay on OVCAR-8 ovarian it was 59.9 µM. Also, the TGI was 60.9 µM in the assay on SF-295 CNS and > 100 µM with M14 melanoma.
With `O=C(O)/C=C/C(=O)O`, the TGI in the assay with HL-60(TB) leukemia, in the assay on U251 CNS, in the assay with DU-145 prostate, with MCF7 breast, with SF-539 CNS and with OVCAR-8 ovarian was > 100 µM in each case. The TGI in the assay with SF-295 CNS, with SW-620 colon and with M14 melanoma was > 100 µM in each case.
Take `Nc1ccc(-n2c(=O)oc3ccc(Cl)cc3c2=O)c(Cl)c1`: the GI50 is 0.0499 µM in the assay on HL-60(TB) leukemia; 0.0838 µM in the assay on RXF 393 renal; 0.118 µM in the assay on U251 CNS; 0.202 µM with DU-145 prostate; 0.262 µM in the assay on MCF7 breast; 0.116 µM in the assay on SF-539 CNS. Also, the concentration for 50% growth inhibition (GI50) with OVCAR-8 ovarian is 0.147 µM; in the assay with SF-295 CNS, 1.07 µM; in the assay on SW-620 colon, 0.161 µM; in the assay with M14 melanoma, 0.104 µM. Moreover, the TGI in the assay on HL-60(TB) leukemia is 0.267 µM; in the assay with RXF 393 renal, 0.293 µM; in the assay with U251 CNS, > 34.5 µM; in the assay on DU-145 prostate it was 14 µM; in the assay with MCF7 breast, > 31.8 µM; in the assay on SF-539 CNS, 1.01 µM. Moreover, the TGI worked out at 5.53 µM in the assay on OVCAR-8 ovarian, 2.8 µM in the assay on SF-295 CNS, 8.18 µM in the assay with SW-620 colon and 0.68 µM in the assay on M14 melanoma.
On to `COc1ccc(C2=CN3CCC[C@H]3C=C2c2cc(O)c(OC)c(OC)c2)cc1OC`, for which the TGI with HL-60(TB) leukemia is 0.161 µM and 0.0175 µM; in the assay with RXF 393 renal, 0.0288 µM; in the assay on U251 CNS it was 0.105 µM and 0.28 µM; in the assay on DU-145 prostate it was 0.254 µM; with SF-539 CNS, 0.0594 µM and 0.0927 µM; in the assay on OVCAR-8 ovarian, 0.0518 µM and 0.0108 µM. Moreover, the TGI was 0.115 µM in the assay with SF-295 CNS; 0.0578 µM and 0.0206 µM in the assay on SW-620 colon; 0.0204 µM with M14 melanoma.
Turning to `Cc1cccc2c1C/C(=C\c1cccc(C)c1C(=O)O)C2=O`, the TGI in the assay on HL-60(TB) leukemia, with RXF 393 renal, in the assay with U251 CNS, in the assay on DU-145 prostate, in the assay with MCF7 breast and in the assay on SF-539 CNS was > 100 µM in each case. The TGI with OVCAR-8 ovarian, in the assay with SF-295 CNS, in the assay on SW-620 colon and in the assay on M14 melanoma was > 100 µM in each case.
For `O=C1O[C@]2(c3ccccc3)C(c3ccccc3)=C[C@]2(C(=O)c2ccccc2)C1=O`, the TGI in the assay on HL-60(TB) leukemia is 22.4 µM; in the assay on RXF 393 renal, 5.13 µM; with U251 CNS, 93.5 µM; with DU-145 prostate, > 100 µM; in the assay on MCF7 breast, 81.8 µM; with SF-539 CNS it was 50.8 µM. Further, the TGI with OVCAR-8 ovarian was > 100 µM; in the assay on SF-295 CNS, > 100 µM; with SW-620 colon, 45.1 µM; with M14 melanoma, > 100 µM.
